Among the data in the supplement of paper PMC10307832 are relative viability values, retold here.

For the first experiment, the system named is SK-MES-1. The experiment can be described thus: relative viability (nuclei count vs DMSO), 5 days (fraction); higher = more cells survive. The settings on record: first compound 0.253 µM. The procedure, abridged: (§1)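 Dosing by pin tool came one day after lung cancer cell lines were seeded in 1536-well plates, using either one drug or a fixed anchor-drug dose plus five library-drug doses (not always all listed) in √10 steps. After 5 days, nuclei were counted on 4× images. Relative viability is treated-well nuclei count divided by vehicle-well nuclei count, and values are medians of duplicate plates.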
Compound `Nc1cccc2c1CN(C1CCC(=O)NC1=O)C2=O` (stereo not drawn) [Lenalidomide] + COc1cccc2cc(-c3nc([C@H]4CC[C@H](C(=O)O)CC4)n4ncnc(N)c34)[nH]c12 [OSI-027] (partner 0.5 µM) yielded a relative viability of 0.573.

The experiment is the same for the next values; noted with them: first compound 0.8 µM.
For the compound `Nc1cccc2c1CN(C1CCC(=O)NC1=O)C2=O` (stereo not drawn) [Lenalidomide] + Nc1ncn([C@H]2C[C@H](O)[C@@H](CO)O2)c(=O)n1 [Decitabine] (partner 2 µM), the relative viability was determined as 0.342.
`Nc1cccc2c1CN(C1CCC(=O)NC1=O)C2=O` (stereo not drawn) [Lenalidomide] + N=C(N)NC(=N)NCCc1ccccc1 [Phenformin] (partner 250 µM) yielded a relative viability of 0.678.
On to `Nc1cccc2c1CN(C1CCC(=O)NC1=O)C2=O` (stereo not drawn) [Lenalidomide] + Nc1nc2[nH]cc(CCc3ccc(C(=O)N[C@@H](CCC(=O)O)C(=O)O)cc3)c2c(=O)[nH]1 [Pemetrexed] (partner 0.2 µM), for which the relative viability was 0.823.
Turning to `Nc1cccc2c1CN(C1CCC(=O)NC1=O)C2=O` (stereo not drawn) [Lenalidomide] + CC(=O)c1c(C)c2cnc(Nc3ccc(N4CCNCC4)cn3)nc2n(C2CCCC2)c1=O [Palbociclib] (partner 0.5 µM), the relative viability amounted to 0.312.
Turning to `Nc1cccc2c1CN(C1CCC(=O)NC1=O)C2=O` (stereo not drawn) [Lenalidomide] + O=C(CCCCCCC(=O)Nc1ccccc1)NO [Vorinostat] (partner 1 µM), the relative viability worked out at 0.881.
On the same count and under the same terms, then `Nc1cccc2c1CN(C1CCC(=O)NC1=O)C2=O` (stereo not drawn) [Lenalidomide] + COc1cccc2cc(-c3nc([C@H]4CC[C@H](C(=O)O)CC4)n4ncnc(N)c34)[nH]c12 [OSI-027] (partner 0.5 µM), with 0.703.

Still in this experiment, the particulars now being: first compound 2.53 µM.
As for `Nc1cccc2c1CN(C1CCC(=O)NC1=O)C2=O` (stereo not drawn) [Lenalidomide] + Nc1ncn([C@H]2C[C@H](O)[C@@H](CO)O2)c(=O)n1 [Decitabine] (partner 2 µM), the relative viability came to 0.428.
`Nc1cccc2c1CN(C1CCC(=O)NC1=O)C2=O` (stereo not drawn) [Lenalidomide] + N=C(N)NC(=N)NCCc1ccccc1 [Phenformin] (partner 250 µM) yielded a relative viability of 0.678.
Regarding `Nc1cccc2c1CN(C1CCC(=O)NC1=O)C2=O` (stereo not drawn) [Lenalidomide] + Nc1nc2[nH]cc(CCc3ccc(C(=O)N[C@@H](CCC(=O)O)C(=O)O)cc3)c2c(=O)[nH]1 [Pemetrexed] (partner 0.2 µM), the relative viability turned out to be 0.934.
Compound `Nc1cccc2c1CN(C1CCC(=O)NC1=O)C2=O` (stereo not drawn) [Lenalidomide] + CC(=O)c1c(C)c2cnc(Nc3ccc(N4CCNCC4)cn3)nc2n(C2CCCC2)c1=O [Palbociclib] (partner 0.5 µM) had a relative viability of 0.278.
On to `Nc1cccc2c1CN(C1CCC(=O)NC1=O)C2=O` (stereo not drawn) [Lenalidomide] + O=C(CCCCCCC(=O)Nc1ccccc1)NO [Vorinostat] (partner 1 µM), for which the relative viability came out at 1.19.
Consider `Nc1cccc2c1CN(C1CCC(=O)NC1=O)C2=O` (stereo not drawn) [Lenalidomide] + COc1cccc2cc(-c3nc([C@H]4CC[C@H](C(=O)O)CC4)n4ncnc(N)c34)[nH]c12 [OSI-027] (partner 0.5 µM), for which the relative viability turned out to be 0.63.

The same experiment, now with this note: first compound 8 µM.
Turning to `Nc1cccc2c1CN(C1CCC(=O)NC1=O)C2=O` (stereo not drawn) [Lenalidomide] + Nc1ncn([C@H]2C[C@H](O)[C@@H](CO)O2)c(=O)n1 [Decitabine] (partner 2 µM), the relative viability worked out at 0.394.
In the case of `Nc1cccc2c1CN(C1CCC(=O)NC1=O)C2=O` (stereo not drawn) [Lenalidomide] + N=C(N)NC(=N)NCCc1ccccc1 [Phenformin] (partner 250 µM), the relative viability is 0.773.
`Nc1cccc2c1CN(C1CCC(=O)NC1=O)C2=O` (stereo not drawn) [Lenalidomide] + Nc1nc2[nH]cc(CCc3ccc(C(=O)N[C@@H](CCC(=O)O)C(=O)O)cc3)c2c(=O)[nH]1 [Pemetrexed] (partner 0.2 µM): the relative viability is 0.888.
Still for that read-out and setting: in the case of `Nc1cccc2c1CN(C1CCC(=O)NC1=O)C2=O` (stereo not drawn) [Lenalidomide] + CC(=O)c1c(C)c2cnc(Nc3ccc(N4CCNCC4)cn3)nc2n(C2CCCC2)c1=O [Palbociclib] (partner 0.5 µM) it was 0.156.
For the compound `Nc1cccc2c1CN(C1CCC(=O)NC1=O)C2=O` (stereo not drawn) [Lenalidomide] + O=C(CCCCCCC(=O)Nc1ccccc1)NO [Vorinostat] (partner 1 µM), the relative viability amounted to 1.06.
As for `Nc1cccc2c1CN(C1CCC(=O)NC1=O)C2=O` (stereo not drawn) [Lenalidomide] + COc1cccc2cc(-c3nc([C@H]4CC[C@H](C(=O)O)CC4)n4ncnc(N)c34)[nH]c12 [OSI-027] (partner 0.5 µM), the relative viability was 0.613.

The next experiment has as its system SW 900. The description is as above. The settings on record: first compound 0.253 µM. The procedure, abridged: as §1
`Nc1cccc2c1CN(C1CCC(=O)NC1=O)C2=O` (stereo not drawn) [Lenalidomide] + N=C(N)NC(=N)NCCc1ccccc1 [Phenformin] (partner 250 µM) had a relative viability of 0.583.
Compound `Nc1cccc2c1CN(C1CCC(=O)NC1=O)C2=O` (stereo not drawn) [Lenalidomide] + COc1cccc2cc(-c3nc([C@H]4CC[C@H](C(=O)O)CC4)n4ncnc(N)c34)[nH]c12 [OSI-027] (partner 0.5 µM) displayed a relative viability of 0.559.

Staying with this experiment, now noted: first compound 2.53 µM.
Take `Nc1cccc2c1CN(C1CCC(=O)NC1=O)C2=O` (stereo not drawn) [Lenalidomide] + Nc1ncn([C@H]2C[C@H](O)[C@@H](CO)O2)c(=O)n1 [Decitabine] (partner 2 µM): the relative viability is 0.51.
`Nc1cccc2c1CN(C1CCC(=O)NC1=O)C2=O` (stereo not drawn) [Lenalidomide] + N=C(N)NC(=N)NCCc1ccccc1 [Phenformin] (partner 250 µM) registered a relative viability of 0.747.
The same measure, in the same setting: then `Nc1cccc2c1CN(C1CCC(=O)NC1=O)C2=O` (stereo not drawn) [Lenalidomide] + Nc1nc2[nH]cc(CCc3ccc(C(=O)N[C@@H](CCC(=O)O)C(=O)O)cc3)c2c(=O)[nH]1 [Pemetrexed] (partner 0.2 µM), with 0.509.
For `Nc1cccc2c1CN(C1CCC(=O)NC1=O)C2=O` (stereo not drawn) [Lenalidomide] + CC(=O)c1c(C)c2cnc(Nc3ccc(N4CCNCC4)cn3)nc2n(C2CCCC2)c1=O [Palbociclib] (partner 0.5 µM), the relative viability turned out to be 0.52.
On the same count and under the same terms, then `Nc1cccc2c1CN(C1CCC(=O)NC1=O)C2=O` (stereo not drawn) [Lenalidomide] + O=C(CCCCCCC(=O)Nc1ccccc1)NO [Vorinostat] (partner 1 µM), with 0.679.
Compound `Nc1cccc2c1CN(C1CCC(=O)NC1=O)C2=O` (stereo not drawn) [Lenalidomide] + COc1cccc2cc(-c3nc([C@H]4CC[C@H](C(=O)O)CC4)n4ncnc(N)c34)[nH]c12 [OSI-027] (partner 0.5 µM) gave a relative viability of 0.742.

The experiment is the same for the next values; noted with them: first compound 8 µM.
Regarding `Nc1cccc2c1CN(C1CCC(=O)NC1=O)C2=O` (stereo not drawn) [Lenalidomide] + Nc1ncn([C@H]2C[C@H](O)[C@@H](CO)O2)c(=O)n1 [Decitabine] (partner 2 µM), the relative viability was 0.532.
In turn, `Nc1cccc2c1CN(C1CCC(=O)NC1=O)C2=O` (stereo not drawn) [Lenalidomide] + N=C(N)NC(=N)NCCc1ccccc1 [Phenformin] (partner 250 µM) came in with a relative viability of 0.688.
Turning to `Nc1cccc2c1CN(C1CCC(=O)NC1=O)C2=O` (stereo not drawn) [Lenalidomide] + Nc1nc2[nH]cc(CCc3ccc(C(=O)N[C@@H](CCC(=O)O)C(=O)O)cc3)c2c(=O)[nH]1 [Pemetrexed] (partner 0.2 µM), the relative viability came to 0.477.
For the compound `Nc1cccc2c1CN(C1CCC(=O)NC1=O)C2=O` (stereo not drawn) [Lenalidomide] + CC(=O)c1c(C)c2cnc(Nc3ccc(N4CCNCC4)cn3)nc2n(C2CCCC2)c1=O [Palbociclib] (partner 0.5 µM), the relative viability worked out at 0.454.
`Nc1cccc2c1CN(C1CCC(=O)NC1=O)C2=O` (stereo not drawn) [Lenalidomide] + O=C(CCCCCCC(=O)Nc1ccccc1)NO [Vorinostat] (partner 1 µM) had a relative viability of 0.429.
In turn, `Nc1cccc2c1CN(C1CCC(=O)NC1=O)C2=O` (stereo not drawn) [Lenalidomide] + COc1cccc2cc(-c3nc([C@H]4CC[C@H](C(=O)O)CC4)n4ncnc(N)c34)[nH]c12 [OSI-027] (partner 0.5 µM) came in with a relative viability of 0.532.
